Results on twelve molecules are retold here after ChEMBL document CHEMBL1201862, “PubChem BioAssay data set” (2004).

Some test systems named below: A549; CCRF-CEM; DU-145; EKVX; HCC 2998; HCT-15; MCF7; MDA-MB-231; MOLT-4; NCI-H226; NCI-H460; OVCAR-3; RPMI-8226; SF-268; SF-295; SK-MEL-28; SNB-19; SR; TK-10; DMS-114.
Assay in all cases: NCI anticancer screen, dose series, 48 h

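In this assay, cells in 96-well plates receive the compound at five concentrations for 48 hours. Endpoints are linearly interpolated between the surrounding concentrations. Here, GI50 denotes the concentration required for 50% inhibition of growth.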 Calls of active or inactive are those of the source. Cut-off read from the data, not from the text of the source: active = GI50 up to about 1.1 µM and inactive = higher.

For `O=C(O)c1cccc(CC(Br)C(=O)O)c1` (stereo not given), the GI50 is > 100 µM (inactive) with A549; > 100 µM (inactive) in the experiment with CCRF-CEM; > 100 µM (inactive) in the experiment on DU-145; > 100 µM (inactive) with EKVX; > 100 µM (inactive) in the experiment with HCC 2998; more than 100 µM in the experiment with HCT-15. Further, the GI50 in the experiment on MCF7, in the experiment on MDA-MB-231, in the experiment on MOLT-4, with NCI-H226, in the experiment with NCI-H460 and in the experiment on OVCAR-3 was > 100 µM (inactive) each time. Further, the GI50 in the experiment on RPMI-8226, with SF-268, in the experiment on SF-295, with SK-MEL-28, in the experiment on SNB-19 and with SR was > 100 µM (inactive) in each case. The GI50 with TK-10 was > 100 µM (inactive).
Consider `CCC12C=CCN3CCC4(c5cc(C(c6ccc(OC)cc6)C6Cc7ccccc7N6)c(OC)cc5N(C)C4C(O)(C(=O)OC)C1O)C32` (stereo not given), for which the GI50 is 20.4 µM (inactive) in the experiment on A549; 3.67 µM (inactive) with CCRF-CEM; 29 µM (inactive) with DU-145; 36.1 µM (inactive) with EKVX; 20 µM (inactive) in the experiment on HCC 2998; 22 µM in the experiment with HCT-15. Moreover, the GI50 was 5.19 µM (inactive) in the experiment on MCF7; 16.1 µM (inactive) with MDA-MB-231; 2.26 µM (inactive) with MOLT-4; 32.7 µM (inactive) in the experiment on NCI-H226; 17.6 µM (inactive) in the experiment on NCI-H460; 19.2 µM (inactive) in the experiment on OVCAR-3. Besides, the GI50 with RPMI-8226 was 1.83 µM (inactive); in the experiment with SF-268, 44.6 µM (inactive); in the experiment on SF-295, 18.3 µM (inactive); in the experiment on SK-MEL-28, 30.2 µM (inactive); in the experiment with SNB-19 it was 17.9 µM (inactive); with SR it was 8.04 µM (inactive). In addition, the GI50 in the experiment on TK-10 is 22.9 µM (inactive).
For `Cc1ccc(S(=O)(=O)N2CCN(S(=O)(=O)c3ccc(C)cc3)Cc3ccccc3C2)cc1`, the GI50 with A549 is 80.5 µM (inactive); in the experiment on CCRF-CEM it was > 100 µM (inactive); with DU-145, > 100 µM (inactive); with EKVX, > 100 µM (inactive); in the experiment with HCC 2998, > 100 µM (inactive); in the experiment on HCT-15, more than 100 µM. For the same molecule, the GI50 in the experiment with MCF7 is 50.5 µM (inactive); in the experiment with MDA-MB-231, > 100 µM (inactive); in the experiment with MOLT-4, > 100 µM (inactive); in the experiment on NCI-H226, 60.3 µM (inactive); in the experiment on NCI-H460, > 100 µM (inactive); in the experiment on OVCAR-3, 56.8 µM (inactive). Also, the GI50 with RPMI-8226 was > 100 µM (inactive); with SF-268 it was 81.1 µM (inactive); with SF-295 it was 31 µM (inactive); with SK-MEL-28 it was > 100 µM (inactive); in the experiment on SNB-19 it was 21.6 µM (inactive); in the experiment with SR it was > 100 µM (inactive). Also, the GI50 in the experiment with TK-10 was > 100 µM (inactive).
Consider `CSC1C=C(C(C)C)CCC1(C)SC` (stereo not given), for which the GI50 was 31.5 µM (inactive) in the experiment on A549; 21 µM (inactive) in the experiment on CCRF-CEM; 15.7 µM (inactive) in the experiment on DMS-114; 24.5 µM (inactive) in the experiment with EKVX; 16.6 µM (inactive) with HCC 2998; 21 µM in the experiment on HCT-15. Moreover, the GI50 in the experiment on MOLT-4 is 16.5 µM (inactive); in the experiment on NCI-H226 it was 17.4 µM (inactive); in the experiment with NCI-H460, 17.2 µM (inactive); in the experiment on OVCAR-3, 12.6 µM (inactive); with RPMI-8226, 20.9 µM (inactive); in the experiment with SF-268, 20.6 µM (inactive). In addition, the results for the GI50 with SK-MEL-28, in the experiment on SNB-19 and in the experiment with TK-10 were 19.4 µM (inactive), 21.2 µM (inactive) and 21.4 µM (inactive), respectively.
`O=c1c2ccccc2nc(-c2ccccc2Cl)n1NC1OC(CO)C(O)C(O)C1O` (stereo not given): the GI50 is > 100 µM (inactive) in the experiment on A549; > 100 µM (inactive) in the experiment with CCRF-CEM; > 100 µM (inactive) in the experiment with DMS-114; > 100 µM (inactive) in the experiment on EKVX; > 100 µM (inactive) in the experiment on HCC 2998; more than 100 µM in the experiment with HCT-15. Besides, the GI50 in the experiment on MOLT-4, in the experiment with NCI-H226, in the experiment with NCI-H460, in the experiment with OVCAR-3, in the experiment on RPMI-8226 and in the experiment on SF-268 was > 100 µM (inactive) in each case. The GI50 in the experiment on SF-295, in the experiment on SK-MEL-28, in the experiment with SNB-19 and in the experiment with TK-10 was > 100 µM (inactive) throughout.
As for `CSc1nnc(COc2ccc(Cl)cc2)o1`, the GI50 in the experiment on A549 was > 100 µM (inactive); in the experiment with DMS-114, > 100 µM (inactive); in the experiment on EKVX, > 100 µM (inactive); in the experiment with HCT-15, more than 100 µM; in the experiment on NCI-H460, > 100 µM (inactive); in the experiment with OVCAR-3, > 100 µM (inactive). In addition, the GI50 in the experiment with SF-268, with SF-295, with SK-MEL-28, in the experiment with SNB-19 and with TK-10 was > 100 µM (inactive) each time.
Regarding `O=C(CC(=O)N1N=C(c2ccccc2)C(/N=N/c2ccc(S(=O)(=O)CCOS(=O)(=O)O)cc2)C1=O)Nc1ccc(Cl)cc1` (stereo not given), the GI50 with A549 is > 100 µM (inactive); with CCRF-CEM it was 49.5 µM (inactive); with DU-145, > 100 µM (inactive); in the experiment on EKVX, > 100 µM (inactive); in the experiment with HCC 2998 it was 59.4 µM (inactive); in the experiment on HCT-15 it was 8.61 µM. In addition, the GI50 in the experiment on MCF7 was > 100 µM (inactive); in the experiment with MDA-MB-231, 91.6 µM (inactive); in the experiment with MOLT-4, 79.3 µM (inactive); in the experiment with NCI-H226 it was > 100 µM (inactive); in the experiment with NCI-H460 it was > 100 µM (inactive); in the experiment with OVCAR-3 it was > 100 µM (inactive). Moreover, the GI50 in the experiment with RPMI-8226, with SF-268, in the experiment with SF-295, in the experiment with SK-MEL-28, in the experiment with SNB-19 and in the experiment on SR was > 100 µM (inactive) throughout. Moreover, in the experiment on TK-10, the GI50 was > 100 µM (inactive).
For `O=c1[nH]nc(-c2ccccc2)n1/N=C/c1ccc([N+](=O)[O-])o1`, the GI50 in the experiment with A549 was 7.66 µM (inactive); in the experiment on CCRF-CEM, 1.09 µM (active); in the experiment on DU-145 it was 3.45 µM (inactive); in the experiment with EKVX, 8.63 µM (inactive); in the experiment on HCC 2998, 5.26 µM (inactive); with HCT-15, 2.21 µM. The GI50 in the experiment with MCF7 is 2.04 µM (inactive); in the experiment with MDA-MB-231 it was 6.71 µM (inactive); in the experiment on MOLT-4, 0.962 µM (active); in the experiment with NCI-H226, 9.44 µM (inactive); in the experiment with NCI-H460, 5.12 µM (inactive); in the experiment with OVCAR-3, 0.993 µM (active). Besides, the GI50 in the experiment on RPMI-8226 was 2.04 µM (inactive); in the experiment on SF-268, 5.57 µM (inactive); in the experiment on SF-295, 10.4 µM (inactive); in the experiment on SK-MEL-28, 4.92 µM (inactive); in the experiment with SNB-19, 12.6 µM (inactive); in the experiment with SR, 1.08 µM (active). Moreover, in the experiment on TK-10, the GI50 is 52.8 µM (inactive).
For the molecule `COc1ccc(NC(=O)CC(=O)N/N=C(\C)c2cc3ccccc3oc2=O)cc1`, the GI50 was > 100 µM (inactive) in the experiment with A549; > 100 µM (inactive) in the experiment on CCRF-CEM; > 100 µM (inactive) with DMS-114; > 100 µM (inactive) in the experiment on EKVX; more than 100 µM in the experiment on HCT-15; > 100 µM (inactive) in the experiment on MOLT-4. In addition, the GI50 in the experiment with NCI-H226, in the experiment with NCI-H460, in the experiment with OVCAR-3, in the experiment on RPMI-8226, in the experiment with SF-295 and with SK-MEL-28 was > 100 µM (inactive) throughout. Further, the GI50 in the experiment with SNB-19 and in the experiment on TK-10 was > 100 µM (inactive) each time.
Regarding `O=C(CC1(O)C(=O)Nc2c(Cl)ccc(Cl)c21)c1ccc(F)cc1` (stereo not given), the GI50 with A549 is 58.1 µM (inactive); in the experiment on CCRF-CEM, 25.9 µM (inactive); in the experiment on DMS-114, 22.7 µM (inactive); in the experiment with EKVX it was 44.4 µM (inactive); in the experiment with HCC 2998, 82.4 µM (inactive); with HCT-15, 38.7 µM. The GI50 in the experiment with MOLT-4 was 25 µM (inactive); in the experiment on NCI-H226 it was 24.8 µM (inactive); in the experiment on NCI-H460, 54.8 µM (inactive); with OVCAR-3, 34.8 µM (inactive); in the experiment with RPMI-8226, 18 µM (inactive); in the experiment with SF-268 it was 36.1 µM (inactive). Further, the GI50 in the experiment with SF-295 was 36 µM (inactive); with SK-MEL-28, > 100 µM (inactive); in the experiment with SNB-19, 46.6 µM (inactive); in the experiment with TK-10, 55.8 µM (inactive).
Take `C[C@]12CCC(=O)C=C1CC[C@@H]1[C@@H]2CC[C@]2(C)C(=O)/C(=C/c3ccc([N+](=O)[O-])cc3)C[C@@H]12`: the GI50 was 8.36 µM (inactive) in the experiment on A549; 8.97 µM (inactive) in the experiment with CCRF-CEM; 0.824 µM (active) with DU-145; 17.1 µM (inactive) with EKVX; 63.2 µM (inactive) with HCC 2998; 10.5 µM in the experiment with HCT-15. Further, the GI50 is 0.621 µM (active) in the experiment with MCF7; 75.2 µM (inactive) with MDA-MB-231; 2.77 µM (inactive) with MOLT-4; > 100 µM (inactive) in the experiment on NCI-H226; 9.57 µM (inactive) in the experiment with NCI-H460; 8.91 µM (inactive) with OVCAR-3. Also, the GI50 was 5.52 µM (inactive) in the experiment with RPMI-8226; 83.6 µM (inactive) with SF-268; 63.7 µM (inactive) with SF-295; > 100 µM (inactive) in the experiment on SK-MEL-28; > 100 µM (inactive) in the experiment with SNB-19; 2.9 µM (inactive) in the experiment with SR. For the same molecule, the GI50 in the experiment with TK-10 is > 100 µM (inactive).
As to `CC(=O)Nc1ccc2cc3[nH]c4cc(NC(C)=O)ccc4c3nc2c1`, the GI50 is > 100 µM (inactive) with A549; 38 µM (inactive) with CCRF-CEM; > 100 µM (inactive) in the experiment with DU-145; > 100 µM (inactive) in the experiment with EKVX; > 100 µM (inactive) with HCC 2998; more than 100 µM with HCT-15. In addition, the GI50 in the experiment with MCF7 was > 100 µM (inactive); in the experiment with MDA-MB-231, > 100 µM (inactive); in the experiment with MOLT-4, 24.9 µM (inactive); with NCI-H226 it was > 100 µM (inactive); in the experiment with NCI-H460, > 100 µM (inactive); in the experiment with OVCAR-3 it was > 100 µM (inactive). For the same molecule, the GI50 with RPMI-8226 is > 100 µM (inactive); in the experiment on SF-268 it was > 100 µM (inactive); in the experiment on SF-295, > 100 µM (inactive); in the experiment on SK-MEL-28, > 100 µM (inactive); in the experiment on SNB-19, > 100 µM (inactive); in the experiment with SR, 61.1 µM (inactive). Besides, the GI50 in the experiment on TK-10 is > 100 µM (inactive).
